Experimental data published in patent publication US20040213771A1, “Targets and screens for agents useful in controlling parasitic nematodes” (priority 2001, published 2004).
Read-outs that look alike come from different tables or passages of the source.

What was measured:
[1] = tested on: C. elegans wild-type (N2) and nhr-8(ok186) mutant animals; conditions: for Sensitivity of nhr-8(ok186) mutant animals compared with wild-type (N2), L1 assay: 1% DMSO, 20° C., ~72 hours, FIGS. 13 and 14
Experimental: Assays for nematode sensitivity to toxic compounds known to induce mammalian cytochrome P450 expression (β-naphthaflavone, primaquine, and atrazine, available from Sigma) were performed in polystyrene 24-well tissue culture plates (Costar, Corning, N.Y.). Each culture well was filled with 0.8 ml of NGM agar (Lewis, J. A. and J. T. Fleming, Basic culture methods, in Caenorhabditis elegans: Modern Biological Analysis of an Organism, H. F. Epstein and D. C. Shakes, Editors. 1995, Academic Press: San Diego, Calif. pp. 3-29) containing compound additions as indicated. Compound solutions and dilutions were prepared in DMSO, and the appropriate amounts of compound were added to aliquots of molten NGM agar (equilibrated in a 55° C. water bath) prior to pouring the wells. For each compound, assays were performed using a range of final compound concentrations in the agar (0, 2, 5, 10, 20 and 30 ug/ml β-naphthoflavone; 0, 25, 50, 100, 250, and 77 ug/ml atrazine; 0, 20, 40, 60, 80 and 100 ug/ml primaquine). The final concentration of DMSO in the agar was 1% in every case, and controls of no addition and of 1% DMSO were also included in every assay series. Once the agar was solidified, each well was seeded with a lawn of E. coli OP50-1 prior to the addition of nematodes. All assays were performed in duplicate. Two different assay strategies were used to assess compound effects on nematode growth and viability: L1 assay: Synchrono5us nematode cultures of the wild-type strain N2 and of the mutant nhr-8(ok186) were obtained by isolating L1 larvae as described Lewis, J. A. and J. T. Fleming, Basic culture methods, in Caenorhabditis elegans: Modern Biological Analysis of an Organism, H. F. Epstein and D. C. […] The actual number of worms in each well was determined by direct count. […] After incubation at 20° C. for ˜72 hours, larval growth was assessed in each well by counting the number of gravid adults, L4 larvae/non-gravid adults, and larvae younger than the L4 stage. […] This difference was recorded as a “missing” class.

[2] = tested on: C. elegans wild type (N2), nhr-8(ok186), pgp-3(pk18) and nhr-8(ok186); pgp-3(pk18) worms
Experimental: Assays for nematode killing by selected toxins were performed in polystyrene 12-well tissue culture plates from Costar (Corning, N.Y.). Concentrated stock solutions of toxins were purified by filtration through 0.2 μm nitrocellulose filters (Corning, Corning, N.Y.). Because the toxin concentrations were not measured following filtration, the molarities of the solutions are estimates. Concentrated toxin stock solutions were serially diluted with S media (0.1 M NaCl, 0.05M potassium phosphate, 5 μg/ml cholesterol, 0.05 mM disodium EDTA, 0.025 mM FeSO4.7H2O, 0.001 mM MnCl2.4H2O, 0.001 mM ZnSO4.7H2O, 0.0001 mM CuSO4.5H2O, […]) to produce appropriate working solutions. To provide a bacterial food source, a saturated culture of E. coli OP50 [43] grown in LB was pelleted and resuspended in each toxin solution. For each 50 ml of toxin solution, 25 ml of the bacterial culture was pelleted for resuspension. Serial dilutions were made in bulk and aliquoted into individual wells (1 ml per well).
To assess killing by the toxins, single hermaphrodites were allowed to lay eggs in individual wells for a 12 hour interval, then transferred to fresh wells. Hatched larvae in each well were counted 12 hours after removal of the hermaphrodite and observed over the course of seven days for development and survival to adulthood [wild type animals complete postembryonic development within 3 days, 29].

[3] = tested on: C. elegans CYP genes (CYP35A1-A5, CYP35B1-B3, CYP35C, CYP31A1, CYP31A3); assay: Induction of cytochrome P450 gene expression, semi-quantitative RT-PCR; assay type: in vivo, Caenorhabditis elegans; conditions: 5 ug/ml beta-naphthaflavone plus 1% DMSO or 1 mM chloroquine; ~72 hours at 20° C.; observed in both N2 and nhr-8(ok186) animals; FIG. 15
Experimental: The plates were incubated at 20° C. for ˜72 hours to allow for nematode growth and exposure to compound. Nematodes were then harvested, washed 3× in M9 to remove residual bacteria, and flash frozen in liquid nitrogen. Total RNA was isolated from the frozen nematodes as described (Sluder, A., S. W. Mathews, D. Hough, V. P. Yin, and C. V. Maina, The nuclear receptor superfamily has undergone extensive proliferation and diversification in nematodes. Genome Research, 1999. 9: 103-120).
The levels of cytochrome P450 mRNA in each RNA prep were assayed by semi-quantitative RT-PCR, using primers for specific cytochrome P450 gene sequences presented in Tables 5 and 6, in which nucleotides at degenerate positions are indicated using (N/N). […] Prior to performing PCR amplification to assess gene expression levels, the number of amplification cycles to be employed with each primer pair was selected to ensure that the amplification reactions remained within the linear reaction range [cycle number was selected as described in Johnstone, I. L. and J. D. Barry, Temporal reiteration of a precise gene expression pattern during nematode development Embo J. 1996, 15: 3633-3639, except that reaction products were analyzed by ethidium bromide-staining rather than Southern blotting]. […]

[4] = tested on: C. elegans nhr-8(RNAi) worms; assay: Colchicine toxicity assay after RNA-mediated interference of nhr-8; assay type: in vivo, Caenorhabditis elegans; conditions: nhr-8(RNAi) vs nhr-8(ok186); percentage surviving to the adult stage; FIG. 7
Experimental: Single RNA strands were produced with the Ambion MEGAscript in vitro transcription kit, using as template a PCR amplicon (produced from cm14e12 using primers EL-15 and T7) that lacked sequences encoding the NHR-8 DNA binding domain. To produce dsRNA, equal amounts of sense and antisense transcription reactions and 3× injection buffer (20 mM KPO4 pH 7.5, 3 mM KCitrate pH 7.5, 2% PEG6000) were combined and incubated on a thermal cycler for strand annealing (95° C., 20 sec.; reduced by 2° C. per 10 sec. cycle for 11 cycles). Both gonad arms of young adult hermaphrodites were injected with the dsRNA [25]. Following a 12 hour purge period to remove embryos unlikely to have received a full dose of dsRNA, the injected hermaphrodites were used in the colchicine toxicity assay described above.

| SMILES | Sensitivity of nhr-8(ok186) mutant animals compared with wild-type (N2), L1 assay [1] | Toxin sensitivity of nhr-8(ok186) homozygotes compared with wild type animals (percentage surviving to the adult stage) ([2]; in vivo) | CYP genes whose expression was induced [3] | also measured |
| --- | --- | --- | --- | --- |
| CCNc1nc(Cl)nc(NC(C)C)n1 [atrazine] | slightly increased sensitivity |  |  |  |
| CCN(CC)CCCC(C)Nc1ccnc2cc(Cl)ccc12 (centres unmarked) [chloroquine] |  | more sensitive | CYP35A1, CYP35B1, CYP35B2, and CYP35B3 | Toxin sensitivity of nhr-8(ok186); pgp-3(pk18) double mutant animals compared with animals with only a single disrupted gene ([2]; in vivo): more sensitive |
| COc1cc2c(c(OC)c1OC)-c1ccc(OC)c(=O)cc1[C@@H](NC(C)=O)CC2 [colchicine] |  | more sensitive |  | Toxin sensitivity of nhr-8(ok186); pgp-3(pk18) double mutant animals compared with animals with only a single disrupted gene ([2]; double mutant vs single mutants, FIG. 6): more sensitive; Toxin sensitivity of nhr-8(ok186) animals compared with pgp-3 putative null mutants ([2]; nhr-8(ok186) vs pgp-3(pk18), FIG. 6): as sensitive; Colchicine sensitivity after disruption of nhr-8 function by RNA mediated interference [4]: phenocopies the colchicine sensitivity of the nhr-8(ok186) mutants |
| COc1cc(NC(C)CCCN)c2ncccc2c1 (centres unmarked) [primaquine] | increased sensitivity |  |  |  |
| O=c1cc(-c2ccccc2)oc2ccc3ccccc3c12 [β-naphthoflavone] |  |  | CYP35A3 and CYP35A4 | Difference in sensitivity of wild-type (N2) and nhr-8(ok186) mutant animals ([1]; preliminary experiments, data not shown): did not reveal any detectable differences |
